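Method: 48-hour compound exposure of cells in 96-well plates, five concentrations, linear interpolation of endpoints. TGI: concentration producing complete growth inhibition.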
Assays:
Experiment in all cases: NCI tumour cell line growth inhibition, 48 h
786-0 renal = tested on: 786-0 renal
A498 renal = tested on: A498 renal
A549 NSCLC = tested on: A549 NSCLC
ACHN renal = tested on: ACHN renal
CAKI-1 renal = tested on: CAKI-1 renal
CCRF-CEM leukemia = tested on: CCRF-CEM leukemia
COLO 205 colon = tested on: COLO 205 colon
DLD-1 colon = tested on: DLD-1 colon
DMS 273 small cell lung = tested on: DMS 273 small cell lung
EKVX NSCLC = tested on: EKVX NSCLC
HCC-2998 colon = tested on: HCC-2998 colon
HCT-116 colon = tested on: HCT-116 colon
HCT-15 colon = tested on: HCT-15 colon
HL-60(TB) leukemia = tested on: HL-60(TB) leukemia
HOP-18 NSCLC = tested on: HOP-18 NSCLC
HOP-62 NSCLC = tested on: HOP-62 NSCLC
HOP-92 NSCLC = tested on: HOP-92 NSCLC
HT29 colon = tested on: HT29 colon
IGROV1 ovarian = tested on: IGROV1 ovarian
K-562 leukemia = tested on: K-562 leukemia
KM12 colon = tested on: KM12 colon
KM20L2 colon = tested on: KM20L2 colon
LOX IMVI melanoma = tested on: LOX IMVI melanoma
LXFL 529 NSCLC = tested on: LXFL 529 NSCLC
M14 melanoma = tested on: M14 melanoma
M19-MEL melanoma = tested on: M19-MEL melanoma
MALME-3M melanoma = tested on: MALME-3M melanoma
MOLT-4 leukemia = tested on: MOLT-4 leukemia
NCI-H226 lung = tested on: NCI-H226 lung
NCI-H23 lung = tested on: NCI-H23 lung
NCI-H460 lung = tested on: NCI-H460 lung
NCI-H522 lung = tested on: NCI-H522 lung
OVCAR-3 ovarian = tested on: OVCAR-3 ovarian
OVCAR-4 ovarian = tested on: OVCAR-4 ovarian
OVCAR-5 ovarian = tested on: OVCAR-5 ovarian
OVCAR-8 ovarian = tested on: OVCAR-8 ovarian
RPMI-8226 leukemia = tested on: RPMI-8226 leukemia
RXF 393 renal = tested on: RXF 393 renal
SF-268 CNS = tested on: SF-268 CNS
SF-295 CNS = tested on: SF-295 CNS
SK-MEL-2 melanoma = tested on: SK-MEL-2 melanoma
SK-MEL-28 melanoma = tested on: SK-MEL-28 melanoma
SK-MEL-5 melanoma = tested on: SK-MEL-5 melanoma
SK-OV-3 ovarian = tested on: SK-OV-3 ovarian
SN12C renal = tested on: SN12C renal
SNB-19 CNS = tested on: SNB-19 CNS
SNB-75 CNS = tested on: SNB-75 CNS
SNB-78 CNS = tested on: SNB-78 CNS
SR leukemia = tested on: SR leukemia
SW-620 colon = tested on: SW-620 colon
TK-10 renal = tested on: TK-10 renal
U251 CNS = tested on: U251 CNS
UACC-257 melanoma = tested on: UACC-257 melanoma
UACC-62 melanoma = tested on: UACC-62 melanoma
UO-31 renal = tested on: UO-31 renal

CCOC(=O)C1(c2ccccc2)CCCNCC1 (stereo not given)
TGI (786-0 renal): > 100 µM
TGI (A498 renal): > 100 µM
TGI (A549 NSCLC): > 100 µM
TGI (ACHN renal): > 100 µM
TGI (CAKI-1 renal): > 100 µM
TGI (CCRF-CEM leukemia): > 100 µM
TGI (COLO 205 colon): > 100 µM
TGI (DLD-1 colon): > 100 µM
TGI (DMS 273 small cell lung): > 100 µM
TGI (EKVX NSCLC): > 100 µM
TGI (HCC-2998 colon): > 100 µM
TGI (HCT-116 colon): > 100 µM
TGI (HCT-15 colon): > 100 µM
TGI (HL-60(TB) leukemia): > 100 µM
TGI (HOP-18 NSCLC): > 100 µM
TGI (HOP-62 NSCLC): > 100 µM
TGI (HOP-92 NSCLC): > 100 µM
TGI (HT29 colon): > 100 µM
TGI (IGROV1 ovarian): > 100 µM
TGI (K-562 leukemia): > 100 µM
TGI (KM12 colon): > 100 µM
TGI (KM20L2 colon): > 100 µM
TGI (LOX IMVI melanoma): > 100 µM
TGI (LXFL 529 NSCLC): > 100 µM
TGI (M14 melanoma): > 100 µM
TGI (M19-MEL melanoma): > 100 µM
TGI (MALME-3M melanoma): > 100 µM
TGI (MOLT-4 leukemia): > 100 µM
TGI (NCI-H226 lung): > 100 µM
TGI (NCI-H23 lung): > 100 µM
TGI (NCI-H460 lung): > 100 µM
TGI (NCI-H522 lung): > 100 µM
TGI (OVCAR-3 ovarian): > 100 µM
TGI (OVCAR-4 ovarian): > 100 µM
TGI (OVCAR-5 ovarian): > 100 µM
TGI (OVCAR-8 ovarian): > 100 µM
TGI (RPMI-8226 leukemia): > 100 µM
TGI (RXF 393 renal): > 100 µM
TGI (SF-268 CNS): > 100 µM
TGI (SF-295 CNS): > 100 µM
TGI (SK-MEL-2 melanoma): > 100 µM
TGI (SK-MEL-28 melanoma): > 100 µM
TGI (SK-MEL-5 melanoma): > 100 µM
TGI (SK-OV-3 ovarian): > 100 µM
TGI (SN12C renal): > 100 µM
TGI (SNB-19 CNS): > 100 µM
TGI (SNB-75 CNS): > 100 µM
TGI (SNB-78 CNS): > 100 µM
TGI (SR leukemia): 88.8 µM
TGI (SW-620 colon): > 100 µM
TGI (TK-10 renal): > 100 µM
TGI (U251 CNS): > 100 µM
TGI (UACC-257 melanoma): > 100 µM
TGI (UACC-62 melanoma): > 100 µM
TGI (UO-31 renal): > 100 µM
